Laboratory results published in patent US9815850B2, “Compounds, compositions and methods” (Denali Therapeutics Inc., priority 2016, dated 2017).
Like-named read-outs stand apart in the source and are kept apart here.

Key:
[1] = biological target: P-gp (P-glycoprotein, MDR1) (Homo sapiens (Human), UniProt P08183); assay: MDCKII-MDR1 permeability, efflux ratio; format: in vitro ADME; settings: dog, MDCK-MDR1, pH 7.4, MDCKII-MDR1 cells, read-out: ER MDR1
Protocol: The blood brain barrier (BBB) separates circulating blood from the extracellular fluid of the central nervous system (CNS). The passive membrane permeability (Papp) and the P-gp (P-glycoprotein) substrate efflux potential were determined using the MDCKII-MDR1 cell line as an in vitro model of the effective permeability of a compound through the BBB. A bidirectional assay (Apical to Basolateral (A→B) and Basolateral to Apical (B→A)), in the absence and in the presence of GF120918 (a P-gp inhibitor) was conducted using pre-plated MDCKII-MDR1 cells (Corning HTS Transwell-96) obtained from SOLVO Biotechnology. The assay was run at 3 μM for 90 min (minutes) in triplicate using a HBSS+12.5 mM HEPES pH 7.4 transport buffer. Following incubation of samples from donor and receiver, wells were removed and measured by LC-MS/MS. Samples were extracted by protein precipitation with acetonitrile containing an appropriate internal standard (IS) having a known mass and molecular weight. The precipitate was centrifuged for 10 min at 3000 rpm (revolutions per minute). The supernatants were then collected, diluted if necessary, and injected on to the LC-MS/MS system. […] Papp (apparent permeability expressed in nm/sec [nanometer/second]) values were calculated according to the following equation: […]
Where dQ/dt is the permeability rate, C0 is the initial concentration in the donor solution (expressed as IS ratio), A and B are the surface areas of the filter (the surface area of the cell monolayer).
Monolayer efflux ratios (ER) were derived using the following equation: […]

[2] = test system: human cryopreserved hepatocytes; assay: Metabolic stability (hepatocytes); format: in vitro ADME; settings: well-stirred model
Source text: Hepatic clearance is expressed as mL/min/kg.

[3] = in vivo
Protocol: (§1) The protein binding in plasma was determined using a Rapid Equilibrium Dialysis Device (Thermo Scientific RED Device) or 96-well dialyzer apparatus (HTDialysis LLC). […] If required, plasma samples were pre-incubated (2 hours at 37° C.) with diisopropyl fluorophosphate (DFP) at the final concentration of 100 μM to prevent compound degradation due to amide hydrolysis. Appropriate volumes of spiked samples along with blank phosphate buffer were added to either device and incubated at 37° C. for a total of 5 hours with agitation at 500 rpm. Following incubation, an equal aliquot of dialysed matrix (plasma or buffer) is added to an equal volume of the opposite blank matrix such that the volume of buffer to plasma are equal. Mixed matrix samples were extracted by protein precipitation using acetonitrile containing the appropriate IS. Samples were then centrifuged for 10 min at 2800 rpm. Supernatants were collected and diluted and then injected on to an HPLC-MS/MS or UPLC-MS/MS system. Samples were analyzed by monitoring the appropriate parent/daughter ion transitions for the test and control compounds. The peak area ratios were used to measure test item concentrations. The fraction unbound (Afu) was determined as the ratio of the peak area ratio in buffer divided by the peak area ratio in plasma.
(§2) The PK properties of test articles were determined in male Sprague-Dawley Crl:CD(SD) rats, male Beagle dogs and male cynomolgus monkeys. Studies were conducted to the highest standards of animal welfare in accordance with national legislation and under approval of the internal animal care and use committees.
(§3) Compounds were administered by IV bolus to animals following an overnight fast. […] The formulations were administered at dose volumes ranging from 0.5-2 mL/kg. The IV dose ranged from 0.5-1 mg/kg.
(§4) Following dose administration, 8-9 serial blood samples were collected over 24 hours. Samples were mixed with anticoagulant and placed on wet ice prior to processing. Plasma was harvested following centrifugation, extracted using protein precipitation with acetonitrile containing IS. The processed supernatant was analyzed using UPLC or LC-MS/MS using specific parent/daughter ion pairs for the test article and IS. Plasma concentrations were determined using a calibration curve prepared using known concentrations of analyte. Pharmacokinetic parameters utilizing measured concentrations were calculated using Phoenix WinNonlin. The unbound plasma clearance was calculated as the ratio of the total body clearance divided by the fraction unbound in plasma.

[4] = test system: FADD-deficient Jurkat cells; assay: Cellular necroptosis assay (human TNFα-induced); format: cell-based; settings: read-out: Cell IC50
Protocol: Ten concentrations of the test compounds were assessed in duplicate in two different test occasions. […] The day of the experiment cells were diluted to a density of […] (5,000 cells/well) with culture medium and added (40 μL) into the 384-well plate containing 0.2 μL/well of test compounds and reference compounds (CRCs) (200×). Cell plates were then incubated at 37° C.-5% CO2. After 30 min, necroptotic cell death was induced with human TNFα (10 ng/mL) and cell viability was evaluated 48 h later by measuring cellular ATP levels using CellTiter-Glo® kit (Promega). Luminescence was read by using Victor V (Perkin Elmer) multilabel plate reader.

[5] = test system: human cryopreserved hepatocytes; assay: Metabolic stability (hepatocytes); format: in vitro ADME; settings: from human CLhep
TNF/zVAD = assay: TNF-driven systemic inflammatory response syndrome model; format: in vivo; settings: 5 mg/kg orally 15 minutes before intravenous TNF/zVAD, mice
Source text: The in vivo efficacy of compounds can be determined in mice using a TNF-driven systemic inflammatory response syndrome model as described by Duprez et. al. (2011, Immunity 35(6), 908-918) and Berger et. al. (2015, Cell Death Disc. 1, 15009). In this model system TNF/zVAD (tumor necrosis factor/Z-Val-Ala-DL-Asp-fluoromethylketone, a caspase inhibitor) treatment results in temperature loss and the production of several inflammatory cytokines. The ability of a test compound to inhibit these inflammatory effects can be measured in this model by dosing mice with test compound 15 minutes before administration of TNF/zVAD and measuring the inflammatory response. The dose required to inhibit the inflammatory response is a measure of the compounds efficacy at that dose. Using this model, Compound 42 was orally pre-dosed at 5 mg/kg 15 minutes before intravenous administration of TNF/zVAD and temperature loss in the mice was measured by an implanted temperature chip. […] The decrease in dosing has a number of important potential advantages, including requiring less frequent administration to a patient, increased patient compliance, and improved safety profile such as lower toxicities while achieving similar efficacy.

[6] = cynomolgus monkey, in vivo
Protocol: as §1, §2, §3, §4

GST-hRIPK1 (8-327) = GST-hRIPK1 (8-327) (Homo sapiens (Human), UniProt Q13546); assay: Fluorescent Polarization Binding (FP Binding) assay
Chain of GST-hRIPK1 (8-327) (Q13546 8-327): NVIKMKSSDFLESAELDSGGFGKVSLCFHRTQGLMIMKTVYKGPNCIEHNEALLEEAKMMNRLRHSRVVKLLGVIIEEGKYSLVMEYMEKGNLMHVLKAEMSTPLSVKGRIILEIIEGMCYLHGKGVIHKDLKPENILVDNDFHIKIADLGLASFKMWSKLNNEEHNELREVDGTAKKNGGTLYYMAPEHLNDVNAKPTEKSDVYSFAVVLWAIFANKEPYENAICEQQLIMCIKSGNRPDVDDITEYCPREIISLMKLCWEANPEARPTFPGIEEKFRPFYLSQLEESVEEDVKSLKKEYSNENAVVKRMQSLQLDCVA
Protocol: Fluorescent Polarization Binding (FP Binding) assay (Berger S. B. et al. […] Maki J. L. et al. […] Test Compounds were serially diluted in DMSO at 100 fold final concentrations in the assay (1% DMSO final). […] For negative control the enzyme addition was replaced by assay buffer only. After addition of 5 μL of fluorescent labeled ligand at twice the final concentrations in assay buffer, the plate was incubated at RT for 30 min.

[7] = male, Beagle, in vivo
Protocol: as §1
The PK properties of test articles were determined in male Sprague-Dawley Crl:CD(SD) rats, male Beagle dogs and male cynomolgus monkeys. […]
Following dose administration, 8-9 serial blood samples were collected over 24 hours. […] The processed supernatant was analyzed using UPLC or LC-MS/MS using specific parent/daughter ion pairs for the test article and IS. Plasma concentrations were determined using a calibration curve prepared using known concentrations of analyte. Pharmacokinetic parameters utilizing measured concentrations were calculated using Phoenix WinNonlin. The unbound plasma clearance was calculated as the ratio of the total body clearance divided by the fraction unbound in plasma.

[8] = male, Sprague-Dawley Crl:CD(SD)
[9] = 10 nM GST-hRIPK1 (8-327), 5 nM fluorescent labeled ligand, read-out: FP IC50
[10] = Homo sapiens, 48 h, human TNFα 10 ng/mL, viability after 48 h

Chain of P-gp (P-glycoprotein, MDR1) (P08183 whole entry): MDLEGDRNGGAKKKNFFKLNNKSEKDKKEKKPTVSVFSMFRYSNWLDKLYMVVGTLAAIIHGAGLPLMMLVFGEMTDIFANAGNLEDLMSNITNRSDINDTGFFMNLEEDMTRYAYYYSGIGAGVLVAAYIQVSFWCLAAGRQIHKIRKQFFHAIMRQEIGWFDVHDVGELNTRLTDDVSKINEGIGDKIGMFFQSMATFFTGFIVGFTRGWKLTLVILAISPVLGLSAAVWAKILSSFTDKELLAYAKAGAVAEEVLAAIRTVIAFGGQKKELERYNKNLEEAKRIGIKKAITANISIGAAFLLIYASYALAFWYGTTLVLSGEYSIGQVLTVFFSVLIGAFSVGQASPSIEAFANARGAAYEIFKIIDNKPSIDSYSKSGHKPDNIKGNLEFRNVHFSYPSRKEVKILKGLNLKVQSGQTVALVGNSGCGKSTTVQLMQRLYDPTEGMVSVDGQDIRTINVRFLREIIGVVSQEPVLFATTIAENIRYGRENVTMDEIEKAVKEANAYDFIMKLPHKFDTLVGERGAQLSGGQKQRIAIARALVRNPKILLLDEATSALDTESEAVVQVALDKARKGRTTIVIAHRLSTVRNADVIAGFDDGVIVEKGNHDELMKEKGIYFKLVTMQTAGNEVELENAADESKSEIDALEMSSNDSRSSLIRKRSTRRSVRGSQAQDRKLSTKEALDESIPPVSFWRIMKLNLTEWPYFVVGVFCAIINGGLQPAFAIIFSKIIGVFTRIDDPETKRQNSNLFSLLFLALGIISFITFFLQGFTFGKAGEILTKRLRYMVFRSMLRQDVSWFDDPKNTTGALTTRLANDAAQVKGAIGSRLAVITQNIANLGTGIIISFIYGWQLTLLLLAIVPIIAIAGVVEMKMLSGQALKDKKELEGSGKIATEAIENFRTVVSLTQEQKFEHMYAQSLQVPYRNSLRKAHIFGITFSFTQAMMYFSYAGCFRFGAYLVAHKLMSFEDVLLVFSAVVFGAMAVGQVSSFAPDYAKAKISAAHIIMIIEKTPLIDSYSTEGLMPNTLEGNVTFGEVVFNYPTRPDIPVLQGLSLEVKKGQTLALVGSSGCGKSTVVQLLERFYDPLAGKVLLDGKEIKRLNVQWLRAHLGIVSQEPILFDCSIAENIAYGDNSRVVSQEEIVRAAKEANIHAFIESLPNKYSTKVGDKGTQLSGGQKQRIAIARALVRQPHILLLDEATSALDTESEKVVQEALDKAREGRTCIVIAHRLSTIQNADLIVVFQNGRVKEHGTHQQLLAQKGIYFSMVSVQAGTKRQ

Compound | efflux ratio at 90 min, 3 μM [1] | Human hepatocyte CLhep Avg [2] [mL/min/kg] | Rat unbound CL [3, 8] [mL/min/kg] | Cyno unbound CL ([6]; male) [mL/min/kg] | IC50 [4, 10] [nM] | other results
CN1C(=O)[C@@H](NC(=O)c2nnc(Cc3ccccc3)o2)COc2ccccc21 [B, reference compound] | 1 | 14 |  |  |  | 
CN1C(=O)[C@@H](NC(=O)c2cc(Cc3ccccc3)on2)COc2ccccc21 [C, reference compound] | 0.9 | 19 |  |  |  | 
CN1C(=O)[C@@H](NC(=O)c2cc(C3(c4ccccc4)CC3)on2)COc2ccccc21 [Example 8, (S)-N-(5-methyl-4-oxo-2,3,4,5-tetrahydrobenzo[b][1,4]oxazepin-3-yl)-5-(1-phenylcyclopropyl)isoxazole-3-carboxamide] | 0.8 |  | 3700 |  |  | IC50 ([4]; human TNFα 10 ng/mL, viability after 48 h): 4 nM
CN1C(=O)[C@@H](NC(=O)c2nnc(Cc3ccccc3)[nH]2)COc2cccnc21 [Example 42, (S)-5-benzyl-N-(5-methyl-4-oxo-2,3,4,5-tetrahydropyrido[3,2-b][1,4]oxazepin-3-yl)-4H-1,2,4-triazole-3-carboxamide] | 19 | 0.8 | 22 | 42 |  | clearance as % of liver blood flow [5]: less than 4%; inhibition of temperature loss (TNF/zVAD): 96%; IC50 (GST-hRIPK1 (8-327)): 0.1 to 1000 nM; Dog unbound CL [7]: 64 mL/min/kg; IC50 ([4]; Homo sapiens, 48 h): 0.1 to 1000 nM
CN1C(=O)[C@@H](NC(=O)c2nnc(C3(c4ccccc4)CC3)o2)COc2cccnc21 [Example 66, (S)—N-(5-methyl-4-oxo-2,3,4,5-tetrahydropyrido[3,2-b][1,4]oxazepin-3-yl)-5-(1-phenylcyclopropyl)-1,3,4-oxadiazole-2-carboxamide] | 1.6 | 6.3 | 113 | 116 |  | IC50 (GST-hRIPK1 (8-327); [9]): 0.1 to 1000 nM; Dog unbound CL [7]: 36 mL/min/kg
CN1C(=O)[C@@H](NC(=O)c2nnc(Cc3ccccc3)[nH]2)[C@H]2C[C@H]2c2cccnc21 [Example 75A, 5-benzyl-N-((1aS,2S,8bR)-4-methyl-3-oxo-1,1a,2,3,4,8b-hexahydrocyclopropa[d]pyrido[2,3-b]azepin-2-yl)-4H-1,2,4-triazole-3-carboxamide] | 24 | 9.1 | 91 | 93 |  | IC50 (GST-hRIPK1 (8-327); [9]): 0.1 to 1000 nM
CN1C(=O)[C@@H](NC(=O)c2cc(C3(c4ccccc4)CC3)on2)COc2cccnc21 [Example 77, (S)—N-(5-methyl-4-oxo-2,3,4,5-tetrahydropyrido[3,2-b][1,4]oxazepin-3-yl)-5-(1-phenylcyclopropyl)isoxazole-3-carboxamide] | 0.6 | 19 | 595 |  |  | IC50 (GST-hRIPK1 (8-327); [9]): 0.1 to 1000 nM
O=C(N[C@@H]1C(=O)Nc2c(F)cc(F)cc2[C@@H]2C[C@H]12)c1nnc(Cc2ccccc2)[nH]1 [Example 83A, 5-benzyl-N-((1aS,2S,8bR)-5,7-difluoro-3-oxo-1,1a,2,3,4,8b-hexahydrobenzo[b]cyclopropa[d]azepin-2-yl)-4H-1,2,4-triazole-3-carboxamide] | 29 | 1.0 | 116 | 82 |  | IC50 (GST-hRIPK1 (8-327); [9]): 0.1 to 1000 nM
C[C@H]1Oc2cccnc2N(C)C(=O)[C@H]1NC(=O)c1nn(Cc2ccccc2)cc1F [Example 92, 1-benzyl-N-((2R,3S)-2,5-dimethyl-4-oxo-2,3,4,5-tetrahydropyrido[3,2-b][1,4]oxazepin-3-yl)-4-fluoro-1H-pyrazole-3-carboxamide] | 1.4 |  | 420 |  | 0.7 | 
C[C@H]1Oc2cccnc2N(C)C(=O)[C@H]1NC(=O)c1nnc(Cc2ccccc2)[nH]1 [Example 94, 5-benzyl-N-((2R,3S)-2,5-dimethyl-4-oxo-2,3,4,5-tetrahydropyrido[3,2-b][1,4]oxazepin-3-yl)-4H-1,2,4-triazole-3-carboxamide] | 14 |  | 44 | 40 | 6 | 
C[C@H]1Oc2cccnc2N(C)C(=O)[C@H]1NC(=O)c1nnc(Cc2ccccc2)o1 [Example 134, 5-Benzyl-N-((2R,3S)-2,5-dimethyl-4-oxo-2,3,4,5-tetrahydropyrido[3,2-b][1,4]oxazepin-3-yl)-1,3,4-oxadiazole-2-carboxamide] | 1.1 |  | 100 | 140 | 3 | 
CN1C(=O)[C@@H](NC(=O)c2nnc(Cc3ccccc3)o2)COc2cccnc21 [Example 146, (S)-5-benzyl-N-(5-methyl-4-oxo-2,3,4,5-tetrahydropyrido[3,2-b][1,4]oxazepin-3-yl)-1,3,4-oxadiazole-2-carboxamide] | 1 |  | 61 | 39 | 0.7 | 
C[C@H]1Oc2cccnc2N(C)C(=O)[C@H]1NC(=O)c1ncn(Cc2cccc(C#N)c2)n1 [Example 172, 1-(3-cyanobenzyl)-N-((2R,3S)-2,5-dimethyl-4-oxo-2,3,4,5-tetrahydropyrido[3,2-b][1,4]oxazepin-3-yl)-1H-1,2,4-triazole-3-carboxamide] |  |  | 65 |  | 1 | 
CN1C(=O)[C@@H](NC(=O)c2nnc(Cc3ccccc3)o2)[C@H]2C[C@H]2c2nccnc21 [Example 177A] |  |  |  |  |  | Rat unbound CL [3]: 55 mL/min/kg; Cyno unbound CL [6]: 58 mL/min/kg
